{
  "source": "patent US10981894B2",
  "about": "“Melanocortin subtype-2 receptor (MC2R) antagonists and uses thereof” (Crinetics Pharmaceuticals, Inc., priority 2018, dated 2021)",
  "molecular_target": "hMC2 receptor (Homo sapiens, UniProt Q01718)",
  "sequence (Q01718 whole entry)": "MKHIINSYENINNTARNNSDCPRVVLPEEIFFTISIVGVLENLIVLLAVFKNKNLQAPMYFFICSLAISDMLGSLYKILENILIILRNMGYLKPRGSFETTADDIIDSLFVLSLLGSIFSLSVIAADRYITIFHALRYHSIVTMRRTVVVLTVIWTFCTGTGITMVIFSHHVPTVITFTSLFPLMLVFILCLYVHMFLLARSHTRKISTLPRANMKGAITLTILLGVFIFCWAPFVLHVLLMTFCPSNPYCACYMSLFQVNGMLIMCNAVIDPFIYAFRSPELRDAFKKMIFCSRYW",
  "sequence (Q8TCY5 whole entry partner)": "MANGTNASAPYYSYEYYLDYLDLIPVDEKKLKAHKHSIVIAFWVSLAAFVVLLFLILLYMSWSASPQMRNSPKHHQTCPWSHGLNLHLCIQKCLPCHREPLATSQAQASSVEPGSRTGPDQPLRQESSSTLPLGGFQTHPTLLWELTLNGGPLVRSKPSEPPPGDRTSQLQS",
  "experiment": "hMC2 membrane binding assay ([125I]ACTH (1-39) Tyr23, SPA)",
  "set-up": "scale not given here",
  "conditions": "crude hMC2R membranes from CRE-bla-CHO-K1 cells expressing hMC2 receptor and hMRAP; [125I]ACTH (1-39) Tyr23 0.2 nM; 1.5 hours at room temperature; read-out: MC2R binding potency",
  "in_short": "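Ki comes from non-linear regression of SPA scintillation counts. Displacement of 0.2 nM [125I]ACTH(1-39) Tyr23 by compound dose series (usually 0–10,000 nM final) ran 1.5 h at room temperature. Membranes came from CHO-K1 CRE-bla cells stably expressing hMC2R plus hMRAP, bead-coupled in pH 7.4 buffer with 0.2% BSA.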",
  "data": [
    {"smiles": "CCOc1ccccc1-c1ccc(N2CCN(C(=O)N3CCCC[C@H]3C(F)(F)F)C[C@H]2CC)c(C(=O)N[C@@H]2CCN(C)C2)n1", "note": "[Compound 1-433, 6-(2-ethoxyphenyl)-3-[(2R)-2-ethyl-4-[(2S)-2-(trifluoromethyl)piperidine-1-carbonyl]piperazin-1-yl]-N-[(3R)-1-methylpyrrolidin-3-yl]pyridine-2-carboxamide]", "values": [
      {"measurement": "Ki", "value": "< 10", "unit": "nM"}
    ]},
    {"smiles": "CCOc1ncccc1-c1ccc(N2CCN(C(=O)N3CCCC[C@H]3C(F)(F)F)C[C@H]2CC)c(C(=O)N[C@H]2CCN(C)C2)n1", "note": "[Compound 1-434, 2′-ethoxy-5-[(2R)-2-ethyl-4-[(2S)-2-(trifluoromethyl)piperidine-1-carbonyl]piperazin-1-yl]-N-[(3S)-1-methylpyrrolidin-3-yl]-[2,3′-bipyridine]-6-carboxamide]", "values": [
      {"measurement": "Ki", "value": "< 10", "unit": "nM"}
    ]},
    {"smiles": "CCOc1ccccc1-c1ccc(N2CCN(C(=O)N3CCCC[C@H]3C(F)(F)F)C[C@H]2CC)c(C(=O)N[C@H]2CCN(C)C2)n1", "note": "[Compound 1-435, 6-(2-ethoxyphenyl)-3-[(2R)-2-ethyl-4-[(2S)-2-(trifluoromethyl)piperidine-1-carbonyl]piperazin-1-yl]-N-[(3S)-1-methylpyrrolidin-3-yl]pyridine-2-carboxamide]", "values": [
      {"measurement": "Ki", "value": "< 10", "unit": "nM"}
    ]},
    {"smiles": "CCOc1ncccc1-c1ccc(N2CCN(C(=O)n3ccc4cccc(C(F)(F)F)c43)C[C@H]2CC)c(C(=O)N[C@@H]2CCN(C)C2)n1", "note": "[Compound 1-436, 2′-ethoxy-5-[(2R)-2-ethyl-4-[7-(trifluoromethyl)-1H-indole-1l-carbonyl]piperazin-1-yl]-N-[(3R)-1-methylpyrrolidin-3-yl]-[2,3′-bipyridine]-6-carboxamide]", "values": [
      {"measurement": "Ki", "value": "< 10", "unit": "nM"}
    ]},
    {"smiles": "CCOc1ccccc1-c1ccc(N2CCN(C(=O)n3ccc4cccc(C(F)(F)F)c43)C[C@H]2CC)c(C(=O)N[C@@H]2CCN(C)C2)n1", "note": "[Compound 1-437, 6-(2-ethoxyphenyl)-3-[(2R)-2-ethyl-4-[7-(trifluoromethyl)-1H-indole-1l-carbonyl]piperazin-1-yl]-N-[(3R)-1-methylpyrrolidin-3-yl]pyridine-2-carboxamide]", "values": [
      {"measurement": "Ki", "value": "< 10", "unit": "nM"}
    ]},
    {"smiles": "CCOc1ncccc1-c1ccc(N2CCN(C(=O)n3ccc4cc(F)cc(C#N)c43)C[C@H]2CC)c(C(=O)N[C@@H]2CCN(C)C2)n1", "note": "[Compound 1-438, 5-[(2R)-4-(7-cyano-5-fluoro-1H-indole-1-carbonyl)-2-ethylpiperazin-1-yl]-2′-ethoxy-N-[(3R)-1-methylpyrrolidin-3-yl]-[2,3′-bipyridine]-6-carboxamide]", "values": [
      {"measurement": "Ki", "value": "< 10", "unit": "nM"}
    ]},
    {"smiles": "CCOc1ccccc1-c1ccc(N2CCN(C(=O)n3ccc4cc(F)cc(C#N)c43)C[C@H]2CC)c(C(=O)N[C@@H]2CCN(C)C2)n1", "note": "[Compound 1-439, 3-[(2R)-4-(7-cyano-5-fluoro-1H-indole-1l-carbonyl)-2-ethylpiperazin-1-yl]-6-(2-ethoxyphenyl)-N-[(3R)-1-methylpyrrolidin-3-yl]pyridine-2-carboxamide]", "values": [
      {"measurement": "Ki", "value": "< 10", "unit": "nM"}
    ]},
    {"smiles": "CCOc1ccccc1-c1ccc(N2CCN(C(=O)c3ccc(C(F)(F)F)cc3Cl)C[C@H]2CC)c(CNC[C@H](C)O)c1", "note": "[Compound 2-2, (2S)-1-[({4-[(2R)-4-[2-chloro-4-(trifluoromethyl)benzoyl]-2-ethylpiperazin-1-yl]-2′-ethoxy-[1,1′-biphenyl]-3-yl}methyl)amino]propan-2-ol]", "values": [
      {"measurement": "Ki", "value": "< 10", "unit": "nM"}
    ]},
    {"smiles": "CC[C@@H]1CN(C(=O)c2ccc(Cl)cc2C(F)(F)F)CCN1c1ccc(-c2ccccc2OC)cc1CN", "note": "[Compound 2-3, 1-{4-[(2R)-4-[4-chloro-2-(trifluoromethyl)benzoyl]-2-ethylpiperazin-1-yl]-2′-methoxy-[1,1′-biphenyl]-3-yl}methanamine]", "values": [
      {"measurement": "Ki", "value": "10 to 100", "unit": "nM"}
    ]},
    {"smiles": "CCOc1ncccc1-c1ccc(N2CCN(C(=O)c3ccc(Cl)cc3C(F)(F)F)C[C@H]2CC)c(CN)n1", "note": "[Compound 2-13, 1-{5-[(2R)-4-[4-chloro-2-(trifluoromethyl)benzoyl]-2-ethylpiperazin-1-yl]-2′-ethoxy-[2,3′-bipyridin]-6-yl}methanamine]", "values": [
      {"measurement": "Ki", "value": "< 10", "unit": "nM"}
    ]},
    {"smiles": "CCOc1ncccc1-c1ccc(N2CCN(C(=O)c3ccc(Cl)cc3C(F)(F)F)C[C@H]2CC)c(CNC)n1", "note": "[Compound 2-16, ({5-[(2R)-4-[4-chloro-2-(trifluoromethyl)benzoyl]-2-ethylpiperazin-1-yl]-2′-ethoxy-[2,3′-bipyridin]-6-yl}methyl)(methyl)amine]", "values": [
      {"measurement": "Ki", "value": "< 10", "unit": "nM"}
    ]},
    {"smiles": "CCOc1ncccc1-c1ccc(N2CCN(C(=O)c3ccc(F)cc3C(F)(F)F)C[C@H]2CC)c(CN)n1", "note": "[Compound 2-20, 1-{2′-ethoxy-5-[(2R)-2-ethyl-4-[4-fluoro-2-(trifluoromethyl)benzoyl]piperazin-1-yl]-[2,3′-bipyridin]-6-yl}methanamine]", "values": [
      {"measurement": "Ki", "value": "< 10", "unit": "nM"}
    ]},
    {"smiles": "CCOc1ncccc1-c1ccc(N2CCN(C(=O)c3ccc(F)cc3C(F)(F)F)C[C@H]2CC)c(CNCCNC)c1", "note": "[Compound 2-21, {[5-(2-ethoxypyridin-3-yl)-2-[(2R)-2-ethyl-4-[4-fluoro-2-(trifluoromethyl)benzoyl]piperazin-1-yl]phenyl]methyl}[2-(methylamino)ethyl]amine]", "values": [
      {"measurement": "Ki", "value": "< 10", "unit": "nM"}
    ]},
    {"smiles": "CCOc1ccc(C(=O)N2CCN(c3ccc(-c4cccnc4OCC)nc3CN)[C@H](CC)C2)c(C(F)(F)F)c1", "note": "[Compound 2-25, 1-{2′-ethoxy-5-[(2R)-4-[4-ethoxy-2-(trifluoromethyl)benzoyl]-2-ethylpiperazin-1-yl]-[2,3′-bipyridin]-6-yl}methanamine]", "values": [
      {"measurement": "Ki", "value": "< 10", "unit": "nM"}
    ]},
    {"smiles": "CCOc1ccc(C(=O)N2CCN(c3ccc(-c4cccnc4OCC)nc3CN)[C@H](CC)C2)c(C(F)(F)F)n1", "note": "[Compound 2-30]", "values": [
      {"measurement": "Ki", "value": "< 10", "unit": "nM"}
    ]},
    {"smiles": "CCOc1ncccc1-c1ccc(N2CCN(C(=O)c3ccc(OC)nc3C(F)(F)F)C[C@H]2CC)c(CN)n1", "note": "[Compound 2-31, 1-{2′-ethoxy-5-[(2R)-2-ethyl-4-[6-methoxy-2-(trifluoromethyl)pyridine-3-carbonyl]piperazin-1-yl]-[2,3′-bipyridin]-6-yl}methanamine]", "values": [
      {"measurement": "Ki", "value": "< 10", "unit": "nM"}
    ]}
  ]
}
